Assay results: patent publication US20030003451A1, “Novel G protein-coupled receptors” (priority 2000, published 2003)
Where “and” joins values, the source holds several entries; their conditions need not be identical. Equal values may be shown once. One block for each molecule: values may come before it. Bridge positions count the residues as written; N and C are the ends. Ends that are not written are not given here. Peptide text beside a SMILES is read from it. * marks the point of attachment. 125I = [125I]*

Assays:
[1] = test system: CHO cells stably transfected with a nGPCR-x expression vector; assay: Intracellular calcium measurement using FLIPR, positive controls; format: cell-based, Chinese Hamster; conditions: A23187 10 μM, ATP 4 μM
Procedure: Changes in intracellular calcium levels are another recognized indicator of G protein-coupled receptor activity, and such assays can be employed to screen for modulators of nGPCR-x activity. For example, CHO cells stably transfected with a nGPCR-x expression vector are plated at a density of 4×10^4 cells/well in Packard black-walled, 96-well plates specially designed to discriminate fluorescence signals emanating from the various wells on the plate. The cells are incubated for 60 minutes at 37 C. in modified Dulbecco's PBS (D-PBS) containing 36 mg/L pyruvate and 1 g/L glucose with the addition of 1% fetal bovine serum and one of four calcium indicator dyes (Fluo-3™ AM, Fluo-4™ AM, Calcium Green™-1 AM, or Oregon Green™ 488 BAPTA-1 AM), each at a concentration of 4 μM. […]
A calcium response is initiated by the addition of one or more candidate receptor agonist compounds, calcium ionophore A23187 (10 μM; positive control), or ATP (4 μM; positive control). Fluorescence is measured by Molecular Device's FLIPR with an argon laser (excitation at 488 nm). […] Basal fluorescence of cells was measured for 20 seconds prior to addition of candidate agonist, ATP, or A23187, and the basal fluorescence level was subtracted from the response signal. The calcium signal is measured for approximately 200 seconds, taking readings every two seconds. […]

nGPCR-51 [2] = biological target: T1, nGPCR-51 (Homo sapiens, UniProt Q969V1); assay: Aequorin luminescence assay, COS 7 cells co-transfected with nGPCR-51 and mtAequorin; format: cell-based; conditions: nGPCR-51 expressing COS 7 cells
T1 construct: expressed in transfected cells
Procedure: Agonist activation of receptors that couple to the Gq subtype of G proteins will lead to the release of intracellular calcium. The photoprotein aequorin emits a characteristic luminescence in the presence of calcium and may be expressed in cells along with the receptor of interest in order to report agonist signalling. Peptide A was tested for the ability to activate nGPCR-51 using an assay for aequorin. Peptide A, a cyclic peptide via a disulfide bond between the Cys residues, has the following amio acid sequence: Asp Phe Asp Met Leu Arg Cys Met Leu Gly Arg Val Tyr Arg Pro Cys Trp Gln Val (SEQ ID NO: 183). Preferably, Peptide A is used in a solution containing 0.17M acetic acid, or the like, and a stabilizer such as a 0.2% BSA:acetonitrile 90:10. […] After the coelenterazine loading incubation, the cells are counted and diluted to 1×10^6 cells/ml in assay buffer. […] The instrument is programmed to dispense 50 μl cell suspension into each well, one well at a time, and immediately read luminescence for 20 seconds. […] Data are analyzed with SlideWrite, using the equation y=a^0*a^1/(x+a^1)+a^2 where a^0 is the maximum response minus the baseline; a^1 is the EC50; and a^2 is the […].

[3] = intracerebroventricular injection, rats; cited from earlier work
nGPCR-51 [4] = biological target: T1, nGPCR-51; assay: Intracellular calcium measurement using FLIPR, nGPCR-51-transfected HEK293 cells; format: cell-based; conditions: fluo-4, FLIPR, read-out: EC50, calcium mobilization
Procedure: (§1) HEK293 cells were transiently transfected with an expression vector for nGPCR-51 and empty vector using Lipofectamine plus (Gibco) according to the manufacturer's instructions. The next day, the cells were seeded into 96-well plates at 25,000 cells per well. The following day, cells were loaded with 1 uM Fluo-4-acetoxymethyl fluorescent indicator dye (Molecular Probes) in MEM (minimal essential media) containing 0.1% bovine serum albumin, 0.04% pluronic acid and 2.5 mM probenecid for 30 minutes at 37 C. The cells were washed with pre-warmed (37 C.) assay buffer (Hanks buffer containing 15 mM HEPES, 2.5 mM probenecid and 0.1% bovine serum albumin). Assay buffer (100 ul) was added to each well and plates were incubated at 37 C. for 15 minutes. Various concentrations (0.03 pM-10 nM) of human Peptide A or salmon Peptide B were added and fluorescence produced by fluo-4 (a calcium sensitive dye) was measured every second for 150 seconds on a fluorometric imaging plate reader (FLIPR1; Molecular Devices). Human Peptide A and salmon Peptide B-induced calcium mobilization in nGPCR-51-transfected cells with EC50 values of 3 nM and 6 nM, respectively. Human Peptide A and salmon Peptide B had no effect on vector-transfected cells.

nGPCR-51 [5] = biological target: T1, nGPCR-51; assay: NFkB-Luciferase reporter gene assay, nGPCR-51 (Seq51)-transfected N7 (HOS) cells; format: cell-based; conditions: 5-hr incubation, 2 separate experiments, read-out: EC50, luciferase expression
Procedure: nGPCR-51 was transfected in N7 cells, stable HOS (human osteosarcoma) cells expressing NFkB-Luciferase reporter gene Briefly, LipofectAMINE, PLUS reagent, and 4 μg DNA were added to cells in Opti-MEM. After 4 hours, serum-containing medium was added to each plate. Twenty-four hour after transfection the cells were trypsinized and seeded in COSTAR white 96-well plate at a cell density of about 20,000 cells per well. Another 24 hours later the culture medium was replaced with fresh growth medium and Peptide A was added. After 5-hr incubation with Peptide A, the medium was aspirated and 100 μL diluted Steady Glo was added. The plates were gently shake at room temperature for 30 minutes and luminescence determined by TopCount at the SPC mode.

[6] = in vivo; cited from earlier work
SLC-1 gene product = conditions: cited from earlier work
[7] = injections of the peptide; cited from earlier work
[8] = injections into the medial preoptic area of the hypothalamus of rats; cited from earlier work
vector-transfected cells = assay: Intracellular calcium measurement using FLIPR, empty vector control HEK293 cells; format: cell-based, human; conditions: 0.03 pM-10 nM
Procedure: as §1

[9] = intracerebroventricular injection; cited from earlier work
[10] = central injections in rats; cited from earlier work
nGPCR-51 [11] = biological target: T2, nGPCR-51 (human (H. sapiens), UniProt Q969V1 1-340); assay: cell-based or functional assay
nGPCR-51 [12] = biological target: T2, nGPCR-51; assay: saturation radioligand binding, membranes of COS 7 cells transiently expressing nGPCR-51, filtration
Procedure: HEK 293 or COS 7 cells transiently expressing nGPCR-51, or CHO K-I cells stable expressing nGPCR-51, were grown to sub-confluence (2 days post-transfection for transients), harvested from flasks in Dulbecco's PBS and pelleted by low speed centrifugation (2500 rpm) for 10 minutes. Cell pellets were homogenized in 10 ml tissue buffer (50 mM Hepes, 10 mM MgCl₂, 2 mM EGTA, 1 μg/ml aprotinin, 1 μg/ml leupeptin hemisulfate, 1 μg/ml pepstatin A, pH 7.0) using a dounce, 10 strokes. Homogenate was centrifuged at 47,000× g for 15 minutes. Membrane pellet was resuspended in 1 ml tissue buffer using the dounce, 10 strokes. An aliquot of the membrane preparation was used to determine protein concentration. For measurement of saturation binding, 10 μg of cell membranes were incubated with various concentrations of [¹²⁵I] Peptide A (iodinated by routine procedures via the Tyr residue) in 300 μl binding assay buffer (tissue buffer plus 0.15 mM Bacitracin and 0.1% ovalbumin) for 90 minutes at room temperature in 96-well plates. Non-specific binding was defined by the inclusion of 1 μM Peptide A. After the binding incubation, plates were harvested onto GF/C filters presoaked in 0.3% non-fat dry milk. […] Filter plates were then counted in a Packard Topcount™ 96-well microplate scintillation counter. Data were analyzed using GraphPad Prism (San Diego, Calif.) and Kd and Bmax values were calculated. […]

T2 sequence (Q969V1 whole entry): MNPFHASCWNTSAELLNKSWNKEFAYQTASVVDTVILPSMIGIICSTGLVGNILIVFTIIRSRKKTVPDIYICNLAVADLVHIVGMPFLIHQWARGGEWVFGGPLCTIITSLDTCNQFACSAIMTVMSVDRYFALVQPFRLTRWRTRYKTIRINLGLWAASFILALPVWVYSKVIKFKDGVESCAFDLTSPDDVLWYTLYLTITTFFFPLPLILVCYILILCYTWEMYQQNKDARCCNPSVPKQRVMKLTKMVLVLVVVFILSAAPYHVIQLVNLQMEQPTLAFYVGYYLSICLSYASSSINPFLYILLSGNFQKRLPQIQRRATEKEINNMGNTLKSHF
T1 sequence (Q969V1 whole entry): as above

Molecule: CNc1ccc2oc(C[C@H]3O[C@@]4(CC[C@H]3C)O[C@H]([C@H](C)C(=O)c3ccc[nH]3)[C@H](C)C[C@H]4C)nc2c1C(=O)O [Peptide A23187]
increase of calcium signal above baseline levels [1]: 200%

Molecule: CSCC[C@@H]1NC(=O)[C@@H](NC(=O)[C@H](CCCNC(=N)N)NC(=O)[C@H](CC(C)C)NC(=O)[C@H](CCSC)NC(=O)[C@H](CC(=O)O)NC(=O)[C@H](Cc2ccccc2)NC(=O)[C@@H](N)CC(=O)O)CSSC[C@@H](C(=O)N[C@@H](Cc2c[nH]c3ccccc23)C(=O)N[C@@H](CCC(N)=O)C(=O)N[C@H](C(=O)O)C(C)C)NC(=O)[C@@H]2CCCN2C(=O)[C@H](CCCNC(=N)N)NC(=O)[C@H](Cc2ccc(O)cc2)NC(=O)[C@H](C(C)C)NC(=O)[C@H](CCCNC(=N)N)NC(=O)CNC(=O)[C@H](CC(C)C)NC1=O [Peptide A, Asp Phe Asp Met Leu Arg Cys Met Leu Gly Arg Val Tyr Arg Pro Cys Trp Gln Val]
EC50 (nGPCR-51 [2]): ~40 nM
maximum response, aequorin luminescence (nGPCR-51 [2]): 52 fold over baseline
food intake [3]: increase in food intake
EC50 (nGPCR-51 [4]): 3 nM
EC50 (nGPCR-51 [5]): 1.6 nM and 1.7 nM
passive avoidance performance [6]: alter passive avoidance performance
activation of SLC-1 G-protein coupled receptor (SLC-1 gene product): potently activated
female sexual receptivity [7]: stimulated female sexual receptivity
time spent in open arms, elevated plus maze [8]: decreases in time spent in open arms
effect on calcium mobilization in vector-transfected cells (vector-transfected cells): no effect
conditioning amplitude of the second of a pair of auditory evoked potentials recorded from the hippocampus [9]: decrease in the conditioning amplitude
effect on increases in the conditioning amplitude induced by alpha MSH [9]: reverses the increases in the conditioning amplitude
peak circadian ACTH levels [10]: reduction in peak circadian ACTH levels
stress-induced ACTH secretion [10]: inhibit stress-induced ACTH secretion

Molecule: Nc1ncnc2c1ncn2[C@@H]1O[C@H](COP(=O)(O)OP(=O)(O)OP(=O)(O)O)[C@@H](O)[C@H]1O [ATP]
increase of calcium signal above baseline levels [1]: 200%

Molecule: DFDMLRCMLGRVYRPCWQV (disulfide 7-16 (inferred)) [Peptide A]
aequorin luminescence, EC50 (nGPCR-51 [11]): ~40 nM
aequorin luminescence, maximum response (nGPCR-51 [11]): 52 fold over baseline
calcium mobilization (FLIPR, fluo-4, HEK293 cells), EC50 (nGPCR-51 [11]): 3 nM

Now from value to molecule, other results behind:

EC50 (nGPCR-51 [4]): 6 nM
EC50 (nGPCR-51 [5]): ~25 nM
Molecule: CSCC[C@@H]1NC(=O)[C@@H](NC(=O)[C@H](CCCNC(=N)N)NC(=O)[C@H](CCSC)NC(=O)[C@@H](NC(=O)[C@@H](N)CC(=O)O)[C@@H](C)O)CSSC[C@@H](C(=O)N[C@@H](Cc2c[nH]c3ccccc23)C(=O)N[C@@H](CCC(=O)O)C(=O)N[C@H](C(=O)O)C(C)C)NC(=O)[C@@H]2CCCN2C(=O)[C@H](CCCNC(=N)N)NC(=O)[C@H](Cc2ccc(O)cc2)NC(=O)[C@H](C(C)C)NC(=O)[C@H](CCCNC(=N)N)NC(=O)CNC(=O)[C@H](C(C)C)NC1=O [salmon Peptide B, Asp Thr Met Arg Cys Met Val Gly Arg Val Tyr Arg Pro Cys Trp Glu Val] (HELM PEPTIDE1{D.T.M.R.C.M.V.G.R.V.Y.R.P.C.W.E.V}$PEPTIDE1,PEPTIDE1,5:R3-14:R3$$$V2.0; N-terminus and C-terminus assumed)
effect on calcium mobilization in vector-transfected cells (vector-transfected cells): no effect

calcium mobilization (FLIPR, fluo-4, HEK293 cells), EC50 (nGPCR-51 [11]): 6 nM
luciferase expression (NFkB-Luciferase reporter, N7 cells), EC50 (nGPCR-51 [11]): ~25 nM
Molecule: DTMRCMVGRVYRPCWEV [Salmon Peptide B]

Kd (nGPCR-51 [12]): 0.254 nM
Molecule: DFDMLRCMLGRVY(125I)RPCWQV (disulfide 7-16 (inferred)) [[^125I] Peptide A]
